Experimental data reported in patent publication US12637478B2, “Compound, preparation method thereof, and antibiotic composition comprising same” (priority 2020, dated 2026).
Values after ≈ are worked out from the molar mass of the structure shown. Where two headings read alike, the source gives them in different places.

Assays:
[1] = tested on: E. faecium^LinR; test: MIC by broth microdilution (aerobic pathogens), test strain 12; type: cell-based, Linezolid resistant Enterococcus faecium; details: Enterococcus faecium
How it was run: (§1)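 Read-out is the concentration achieving 90% growth inhibition relative to non-treated control, determined by broth microdilution under CLSI M7-A5 conditions.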

[2] = tested on: S. aureus^VR; test: MIC by broth microdilution (aerobic pathogens), test strain 4; type: cell-based, Vancomycin resistant Staphylococcus aureus; details: Staphylococcus aureus
Method: (§2) The antibacterial activity of the compounds of Examples 1 to 48 of the present invention against aerobic pathogens were evaluated by measuring the minimum concentration of the antibiotic capable of inhibiting bacterial growth by 90% compared to the growth of the non-drug treated control group. MIC was measured by the broth microdilution method based on CLSI standards [Reference: Clinical and Laboratory Standards Institute Document. (2000) Methods for Dilution Antimicrobial Susceptibility Test for Bacteria that Grow Aerobically-Fifth Edition: M7-A5. CLSI, Villanova, PA].
(§3) All 13 strains such as methicillin susceptible Staphylococcus aureus (MSSA), methicillin resistant Staphylococcus aureus (MRSA), Vancomycin resistant Staphylococcus aureus (VRSA), Staphylococcus epidermidis, methicillin resistant Staphylococcus epidermidis, Enterococcus faecalis, Vancomycin resistant Enterococcus faecalis, Enterococcus faecium, Vancomycin resistant Enterococcus faecium were used.

[3] = tested on: E. faecalis^LinR; test: MIC by broth microdilution (aerobic pathogens), test strain 9; type: cell-based, Linezolid resistant Enterococcus faecalis; details: Enterococcus faecalis
How it was run: as §1

[4] = tested on: E. faecium; test: MIC by broth microdilution (aerobic pathogens), test strain 10; type: cell-based; details: Enterococcus faecium
How it was run: as §1

[5] = tested on: S. aureus^MS; test: MIC by broth microdilution (aerobic pathogens), test strain 2; type: cell-based; details: Staphylococcus aureus
How it was run: as §1

[6] = tested on: C. difficile 174; test: MIC by agar dilution against Clostridioides difficile, test strain 18; type: cell-based
[7] = tested on: S. epidermis; test: MIC by broth microdilution (aerobic pathogens), test strain 5; type: cell-based; details: Staphylococcus epidermidis
How it was run: as §1

[8] = tested on: C. difficile 173; test: MIC by agar dilution against Clostridioides difficile, test strain 17; type: cell-based
[9] = tested on: E. faecalis^VanA; test: MIC by broth microdilution (aerobic pathogens), test strain 8; type: cell-based, Vancomycin resistant Enterococcus faecalis; details: Enterococcus faecalis
How it was run: as §1

[10] = tested on: M. tuberculosis; test: MIC by resazurin (REMA) assay against Mycobacterium, test strain 20; type: cell-based
Method: (§4) In order to test the antibacterial activity, the medium of Mycobacterium cultured to late log phase was diluted so as to be 4.0×10^5 cells/well in Middlebrook 7H10 agar medium (Difco) supplemented with 10% oleic acid, albumin, dextrose, catalase (OADC, Becton Dickinson) and 0.05% Tween 80 (Sigma Aldrich) and was dispensed into a 96-well plate. The compounds were treated so that DMSO was 1%, and after 3 days, a 0.025% resazurin (REMA) solution was dispensed, and the growth of the bacteria was confirmed after culturing. The MIC value was measured for the antibacterial activity through resazurin (excitation 530 nm, emission 590 nm).

[11] = tested on: C. difficile 161; test: MIC by agar dilution against Clostridioides difficile, test strain 16; type: cell-based; details: test strain 16, C. difficile 161, anaerobic, agar dilution, read-out: MIC
[12] = tested on: S. aureus^MS; test: MIC by broth microdilution (aerobic pathogens), test strain 1; type: cell-based; details: Staphylococcus aureus
How it was run: as §1

[13] = tested on: E. faecalis; test: MIC by broth microdilution (aerobic pathogens), test strain 7; type: cell-based; details: Enterococcus faecalis
How it was run: as §1

[14] = tested on: S. epidermis^MR; test: MIC by broth microdilution (aerobic pathogens), test strain 6; type: cell-based, Methicillin resistant Staphylococcus epidermidis; details: Staphylococcus epidermidis
How it was run: as §1

[15] = tested on: M. intracelluare; test: MIC by resazurin (REMA) assay against Mycobacterium, test strain 22; type: cell-based; details: Mycobacterium intracellulare
Method: as §4

[16] = tested on: M. avium; test: MIC by resazurin (REMA) assay against Mycobacterium, test strain 21; type: cell-based
Method: as §4

[17] = tested on: M. abscessus; test: MIC by resazurin (REMA) assay against Mycobacterium, test strain 23; type: cell-based; details: Mycobacteroides abscessus
Method: as §4

[18] = tested on: C. difficile 9689; test: MIC by agar dilution against Clostridioides difficile, test strain 13; type: cell-based
[19] = tested on: E. faecium^VRE; test: MIC by broth microdilution (aerobic pathogens), test strain 11; type: cell-based, Vancomycin resistant Enterococcus faecium; details: Enterococcus faecium; test strain 11, E. faecium^VRE (vancomycin resistant); read-out: MIC
Method: as §2, §3

[20] = tested on: C. difficile 152; test: MIC by agar dilution against Clostridioides difficile, test strain 14; type: cell-based
[21] = tested on: C. difficile 181; test: MIC by agar dilution against Clostridioides difficile, test strain 19; type: cell-based
[22] = tested on: C. difficile 159; test: MIC by agar dilution against Clostridioides difficile, test strain 15; type: cell-based
[23] = tested on: S. aureus^MR; test: MIC by broth microdilution (aerobic pathogens), test strain 3; type: cell-based, Methicillin resistant Staphylococcus aureus; details: Staphylococcus aureus
Method: as §2, §3

[24] = test strain 12, E. faecium^LinR (linezolid resistant), read-out: MIC
[25] = test strain 4, S. aureus^VR (vancomycin resistant), read-out: MIC
[26] = test strain 9, E. faecalis^LinR (linezolid resistant), read-out: MIC
[27] = test strain 10, E. faecium, read-out: MIC
[28] = test strain 2, S. aureus^MS, read-out: MIC
[29] = test strain 18, C. difficile 174, anaerobic, agar dilution, read-out: MIC
[30] = test strain 5, S. epidermis, read-out: MIC
[31] = test strain 17, C. difficile 173, anaerobic, agar dilution, read-out: MIC
[32] = test strain 8, E. faecalis^VanA (vancomycin resistant), read-out: MIC
[33] = test strain 1, S. aureus^MS, read-out: MIC
[34] = test strain 7, E. faecalis, read-out: MIC
[35] = test strain 6, S. epidermis^MR (methicillin resistant), read-out: MIC
[36] = test strain 22, M. intracelluare, resazurin, read-out: MIC
[37] = test strain 21, M. avium, resazurin, read-out: MIC
[38] = test strain 23, M. abscessus, resazurin, read-out: MIC

| Structure (SMILES) | MIC [1, 24] [mg/L] | MIC [2, 25] [mg/L] | MIC [3, 26] [mg/L] | MIC [4, 27] [mg/L] | MIC [5, 28] [mg/L] | MIC [6, 29] [mg/L] | MIC [7, 30] [mg/L] | MIC [8, 31] [mg/L] | MIC [9, 32] [mg/L] | MIC [11] [mg/L] | MIC [12, 33] [mg/L] | MIC [13, 34] [mg/L] | MIC [14, 35] [mg/L] | MIC [15, 36] [mg/L] | MIC [16, 37] [mg/L] | MIC [17, 38] [mg/L] | MIC [3] [mg/L] | MIC [14] [mg/L] | also measured |
| --- | --- | --- | --- | --- | --- | --- | --- | --- | --- | --- | --- | --- | --- | --- | --- | --- | --- | --- | --- |
| C/C=C(\NC(=O)c1csc(-c2csc(-c3ccc4c(n3)-c3csc(n3)[C@H]([C@@H](C)O)NC(=O)c3csc(n3)[C@H](C(C)C)NC(=O)c3csc(n3)/C(=C/C)NC(=O)[C@H]([C@@H](C)O)NC(=O)c3csc-4n3)n2)n1)C(=O)NCCN1CCOCC1 [Compound 1] | 1 (≈ 0.834 µM) | 1 (≈ 0.834 µM) | 0.125 (≈ 0.104 µM) | 0.5 (≈ 0.417 µM) | 0.125 (≈ 0.104 µM) | 0.5 (≈ 0.417 µM) | 0.125 (≈ 0.104 µM) | 1 (≈ 0.834 µM) | 0.125 (≈ 0.104 µM) | 0.5 (≈ 0.417 µM) | 0.125 (≈ 0.104 µM) | 0.25 (≈ 0.208 µM) | 0.125 (≈ 0.104 µM) | – | – | – | – | – | MIC [10]: 0.076 mg/L (≈ 0.0634 µM) |
| C/C=C1\NC(=O)[C@H]([C@@H](C)O)NC(=O)c2csc(n2)-c2ccc(-c3nc(-c4nc(C(=O)NC5(C(=O)NCCN6CCN(S(N)(=O)=O)CC6)CC5)cs4)cs3)nc2-c2csc(n2)[C@H]([C@@H](C)O)NC(=O)c2csc(n2)[C@H](C(C)C)NC(=O)c2csc1n2 [Compound 30] | – | – | 0.5 (≈ 0.391 µM) | – | 1 (≈ 0.783 µM) | – | 0.25 (≈ 0.196 µM) | – | – | – | 0.5 (≈ 0.391 µM) | 1 (≈ 0.783 µM) | 1 (≈ 0.783 µM) | 0.024 (≈ 0.0188 µM) | 0.089 (≈ 0.0697 µM) | 0.559 (≈ 0.438 µM) | – | – | – |
| C/C=C1\NC(=O)[C@H]([C@@H](C)O)NC(=O)c2csc(n2)-c2ccc(-c3nc(-c4nc(C(=O)NC5(C(=O)NCCN6CCN(S(C)(=O)=O)CC6)CC5)cs4)cs3)nc2-c2csc(n2)[C@H]([C@@H](C)O)NC(=O)c2csc(n2)[C@H](C(C)C)NC(=O)c2csc1n2 [Compound 29] | – | – | 0.25 (≈ 0.196 µM) | – | 0.25 (≈ 0.196 µM) | – | 0.5 (≈ 0.392 µM) | – | – | – | 0.25 (≈ 0.196 µM) | 1 (≈ 0.783 µM) | 0.5 (≈ 0.392 µM) | 0.13 (≈ 0.102 µM) | 0.161 (≈ 0.126 µM) | 0.43 (≈ 0.337 µM) | – | – | – |
| C/C=C1\NC(=O)[C@H]([C@@H](C)O)NC(=O)c2csc(n2)-c2ccc(-c3nc(-c4nc(C(=O)NC5(C(=O)NCCCN6CCOCC6)CC5)cs4)cs3)nc2-c2csc(n2)[C@H]([C@@H](C)O)NC(=O)c2csc(n2)[C@H](C(C)C)NC(=O)c2csc1n2 [Compound 7] | 0.5 (≈ 0.412 µM) | 1 (≈ 0.824 µM) | – | 0.25 (≈ 0.206 µM) | 0.25 (≈ 0.206 µM) | 0.06 (≈ 0.0494 µM) | 0.0625 (≈ 0.0515 µM) | 0.06 (≈ 0.0494 µM) | 0.25 (≈ 0.206 µM) | 0.5 (≈ 0.412 µM) | 0.25 (≈ 0.206 µM) | 0.25 (≈ 0.206 µM) | – | 0.107 (≈ 0.0882 µM) | 0.083 (≈ 0.0684 µM) | 0.322 (≈ 0.265 µM) | 0.125 (≈ 0.103 µM) | 0.125 (≈ 0.103 µM) | MIC ([18]; test strain 13, C. difficile 9689, anaerobic, agar dilution, read-out: MIC): 0.25 mg/L (≈ 0.206 µM); MIC [19]: 1 mg/L (≈ 0.824 µM); MIC ([20]; test strain 14, C. difficile 152, anaerobic, agar dilution, read-out: MIC): 0.06 mg/L (≈ 0.0494 µM); MIC ([21]; test strain 19, C. difficile 181, anaerobic, agar dilution, read-out: MIC): 0.25 mg/L (≈ 0.206 µM); MIC ([22]; test strain 15, C. difficile 159, anaerobic, agar dilution, read-out: MIC): 0.25 mg/L (≈ 0.206 µM); MIC ([23]; test strain 3, S. aureus^MR (methicillin resistant), read-out: MIC): 0.5 mg/L (≈ 0.412 µM) |
| C/C=C1\NC(=O)[C@H]([C@@H](C)O)NC(=O)c2csc(n2)-c2ccc(-c3nc(-c4nc(C(=O)NC5(C(=O)NCCN6C(=O)CNC6=O)CC5)cs4)cs3)nc2-c2csc(n2)[C@H]([C@@H](C)O)NC(=O)c2csc(n2)[C@H](C(C)C)NC(=O)c2csc1n2 [Compound 5] | – | – | – | – | – | – | – | – | – | – | – | – | – | – | – | – | 0.5 (≈ 0.412 µM) | 0.5 (≈ 0.412 µM) | MIC [1]: 0.5 mg/L (≈ 0.412 µM); MIC [2]: 1 mg/L (≈ 0.825 µM); MIC [4]: 1 mg/L (≈ 0.825 µM); MIC [5]: 0.25 mg/L (≈ 0.206 µM); MIC [6]; 174: 0.25 mg/L (≈ 0.206 µM); MIC [7]: 0.5 mg/L (≈ 0.412 µM); MIC [15]: 0.155 mg/L (≈ 0.128 µM); MIC [18]; 9689: 1 mg/L (≈ 0.825 µM); MIC [8]; 173: 1 mg/L (≈ 0.825 µM); MIC [20]; 152: 0.5 mg/L (≈ 0.412 µM); MIC [9]: 0.5 mg/L (≈ 0.412 µM); MIC [16]: 0.043 mg/L (≈ 0.0355 µM); MIC [17]: 0.504 mg/L (≈ 0.416 µM); MIC [21]; 181: 0.125 mg/L (≈ 0.103 µM); MIC [12]: 0.25 mg/L (≈ 0.206 µM); MIC [13]: 0.25 mg/L (≈ 0.206 µM); MIC [22]; 159: 1 mg/L (≈ 0.825 µM); MIC [23]: 1 mg/L (≈ 0.825 µM) |
